Experimental data taken from patent publication US10294234B2, “HIV inhibitor compounds” (priority 2017, dated 2019).
Where two headings read alike, the source gives them in different places.

How the values were obtained:
[1] = tested on: HIV-1 (IIIB) in MT-4 cells; assay: MT-4 HIV assay; format: cell-based; conditions: Human immunodeficiency virus 1, MT4, 120 h
Procedure, shortened: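 Antiviral activity was read by Cell Titer Glo after a 5-day, 37 °C culture of MT-4 cells pre-infected with a 1:250 dilution of HIV-1 (IIIB). Compounds were tested as threefold dilution series in complete RPMI. Controls were no drug, mock infection and 5 uM AZT.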

[2] = 3H Human Predicted Clearance Assay (tritiated analogs); format: in vitro ADME; design: unit not given here
Experimental: 3H Human Predicted Clearance Assay:
For certain compounds, tritiated analogs (H^3) were prepared to further determined their human predicted clearance with increased resolution. Those studies were performed as described above using the tritiated analogs. Data from those compounds is found in Table 2 below and reported in FIG. 1 (note ATV and DRV were not tritiated).

[3] = Procedure, shortened: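 Each compound (1 uM) is incubated in duplicate with 0.5 mg/mL liver microsomal protein from dog, rat or human plus NADPH-regenerating system. Samples taken at 2, 12, 25, 45 and 65 minutes are deproteinised and quantified by LC/MS/MS. Half-life gives Clint.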
in vivo [4] = conditions: rat, in vivo; for Vd / RAT PO F: male, SD; for Vd / RAT IV CL / RAT IV T1/2: iv; for RAT PO F: 2.5 mg/kg
Experimental: Each dosing group consisted of 3 male naïve SD Rats. At dosing, the animals weighed between 0.27 to 0.32 kg. The animals were fasted overnight prior to dose administration. The test article was administered by intravenous infusion over 30 min. The rate of infusion was adjusted according to the body weight of each animal to deliver a dose of 0.5 or 1.0 mg/kg. For the oral dosing group, the test article was administered to animals by oral gavage administration. Serial venous blood samples (approximately 0.30 mL each) were taken at predose and 0.25, 0.48, 0.58, 0.75, 1.5, 3, 6, 8, 12 and 24 hours post dose for the IV dosing group animals. Blood samples were taken at predose, 0.25, 0.50, 1, 2, 4, 6, 8, 12 and 24 hours post dose for the oral group animals. The blood samples were collected into Vacutainer™ tubes containing EDTA-K2 as the anti-coagulant and were immediately placed on wet ice pending centrifugation for plasma. An LC/MS/MS method was used to measure the concentration of test compound in plasma. Non-compartmental pharmacokinetic analysis was performed on the plasma concentration-time data.

in vivo [5] = assay: in vivo
Experimental: Pharmacokinetic Profiling Dog PK
Each dosing group consisted of three non-naïve male beagle dogs. At dosing, the animals weighed between 9 to 12 kg. The animals were fasted overnight prior to dose administration and up to four hours after dosing. The test article was administered by intravenous infusion over 30-minutes. The rate of infusion was adjusted according to the body weight of each animal to deliver a dose of 0.5 or 1.0 mg/kg. For the oral dosing group, the test article was administered by oral gavage at a dose volume of 2 mL/kg.
Serial venous blood samples (approximately 1.0 mL each) were collected at predose and 0.25, 0.48, 0.58, 0.75, 1.0, 1.5, 2, 4, 8, 12 and 24 hours post dose from each animal for the IV dosing group; blood samples were collected at predose, 0.25, 0.50, 1, 2 4, 6, 8,12 and 24 hours post dose for the oral dosing group. The blood samples were collected into Vacutainer™ tubes containing EDTA-K2 as the anti-coagulant and were immediately placed on wet ice pending centrifugation for plasma. An LC/MS/MS method was used to measure the concentration of test compound in plasma. Non-compartmental pharmacokinetic analysis was performed on the plasma concentration-time data. VSS=apparent volume of distribution, t1/2=half life, F=oral bioavailability.

[6] = HIV-1 (IIIB), MT-4 cells, 5 days, Cell Titer Glo, read-out: EC50
[7] = tritiated analogs, human liver microsomes
[8] = human liver microsomes 0.5 mg/mL, 1 uM compound, NADPH
[9] = rat liver microsomes 0.5 mg/mL, 1 uM compound, NADPH

| Structure (SMILES) | EC50 [1, 6] [nM] | 3H Human Predicted Cl. ([2]; human, 1 uM) | Dog. Pred. Cl. ([3]; dog, microsomes) [L/H/kg] | Human Pred Cl. ([3]; human, microsomes) [L/H/kg] | Rat. Pred. Cl. ([3]; rat, microsomes) [L/H/kg] | 3H Human Predicted Cl. [2, 7] | Human Pred Cl. [3, 8] [L/H/kg] | also measured |
| --- | --- | --- | --- | --- | --- | --- | --- | --- |
| COC(=O)N[C@H](C(=O)NN(Cc1c(F)cc(-c2ccn(C(F)F)n2)cc1F)C[C@H](O)[C@H](Cc1ccc(C#Cc2cnc(N3CC4CCC(C3)N4C3COC3)nc2)cc1)NC(=O)[C@@H](NC(=O)OC)C(C)(C)C(F)(F)F)C(C)(C)C [Example 23, Methyl ((5S,8S,9S,14S)-11-(4-(1-(difluoromethyl)-1H-pyrazol-3-yl)-2,6-difluorobenzyl)-9-hydroxy-15,15-dimethyl-8-(4-((2-(8-(oxetan-3-yl)-3,8-diazabicyclo[3.2.1]octan-3-yl)pyrimidin-5-yl)ethynyl)benzyl)-3,6,13-trioxo-5-(1,1,1-trifluoro-2-methylpropan-2-yl)-2-oxa-4,7,11,12-tetraazahexadecan-14-yl)carbamate] | 4.82 | 0.07 | 0.21 | <0.11 | 0.22 | – | – | – |
| COC(=O)N[C@H](C(=O)N[C@@H](Cc1ccc(C#Cc2ccc(N3CCN4CCOC[C@H]4C3)nc2)cc1)[C@@H](O)CN(Cc1c(F)cc(-c2ccn(C(F)F)n2)cc1F)NC(=O)[C@@H](NC(=O)OC)C(C)(C)C(F)(F)F)C(C)(C)C(F)(F)F [Example 51, methyl ((5S,8S,9S,14S)-11-(4-(1-(difluoromethyl)-1H-pyrazol-3-yl)-2,6-difluorobenzyl)-16,16,16-trifluoro-8-(4-((6-((R)-hexahydropyrazino[2,1-c][1,4]oxazin-8(1H)-yl)pyridin-3-yl)ethynyl)benzyl)-9-hydroxy-15,15-dimethyl-3,6,13-trioxo-5-(1,1,1-trifluoro-2-methylpropan-2-yl)-2-oxa-4,7,11,12-tetraazahexadecan-14-yl)carbamate] | – | – | – | – | – | 0.11 | <0.11 | EC50 [1]: 2.8 nM |
| COC(=O)N[C@H](C(=O)N[C@@H](Cc1ccc(C#Cc2ccc(N3CC4CCC(C3)N4C3COC3)nc2)cc1)[C@@H](O)CN(Cc1ccc(-c2cnn(C(F)F)c2)cc1)NC(=O)[C@@H](NC(=O)OC)C(C)(C)C(F)(F)F)C(C)(C)C(F)(F)F [Example 63, Methyl ((5S,8S,9S,14S)-11-(4-(1-(difluoromethyl)-1H-pyrazol-4-yl)benzyl)-16,16,16-trifluoro-9-hydroxy-15,15-dimethyl-8-(4-((6-(8-(oxetan-3-yl)-3,8-diazabicyclo[3.2.1]octan-3-yl)pyridin-3-yl)ethynyl)benzyl)-3,6,13-trioxo-5-(1,1,1-trifluoro-2-methylpropan-2-yl)-2-oxa-4,7,11,12-tetraazahexadecan-14-yl)carbamate] | 4.25 | – | 0.86 | <0.11 | 0.2 | – | – | Vd (in vivo [4]): 5.46 L/kg; RAT PO F (in vivo [4]): 19%; RAT IV CL (in vivo [4]): 0.42 L/h/kg; RAT IV T1/2 (in vivo [4]): 11.9 h; DOG IV CL (in vivo [5]; dog, in vivo, iv): 0.28 L/h/kg; DOG IV T1/2 (in vivo [5]; male beagle dogs, IV infusion over 30 minutes, 0.5 or 1.0 mg/kg): 8.16 h; Vd (in vivo [5]; male, beagle, dog, in vivo, iv): 2.4 L/kg |
| COC(=O)N[C@H](C(=O)N[C@@H](Cc1ccc(C#Cc2ccc(N3CC4CCC(C3)N4C3COC3)nc2)cc1)[C@@H](O)CN(Cc1c(F)cc(-c2nnc(C3CC3)s2)cc1F)NC(=O)[C@@H](NC(=O)OC)C(C)(C)C(F)(F)F)C(C)(C)C(F)(F)F [Example 75, Methyl ((5S,8S,9S,14S)-11-(4-(5-cyclopropyl-1,3,4-thiadiazol-2-yl)-2,6-difluorobenzyl)-16,16,16-trifluoro-9-hydroxy-15,15-dimethyl-8-(4-((6-(8-(oxetan-3-yl)-3,8-diazabicyclo[3.2.1]octan-3-yl)pyridin-3-yl)ethynyl)benzyl)-3,6,13-trioxo-5-(1,1,1-trifluoro-2-methylpropan-2-yl)-2-oxa-4,7,11,12-tetraazahexadecan-14-yl)carbamate] | 3.41 | 0.11 | – | <0.11 | 0.21 | – | – | – |
| COC(=O)N[C@H](C(=O)N[C@@H](Cc1ccc(C#Cc2cnc(N3CCN(C4COC4)CC3)nc2)cc1)[C@@H](O)CN(Cc1c(F)cc(-c2ncccn2)cc1F)NC(=O)[C@@H](NC(=O)OC)C(C)(C)C(F)(F)F)C(C)(C)C(F)(F)F [Example 88, Methyl ((5S,8S,9S,14S)-11-(2,6-difluoro-4-(pyrimidin-2-yl)benzyl)-16,16,16-trifluoro-9-hydroxy-15,15-dimethyl-8-(4-((2-(4-(oxetan-3-yl)piperazin-1-yl)pyrimidin-5-yl)ethynyl)benzyl)-3,6,13-trioxo-5-(1,1,1-trifluoro-2-methylpropan-2-yl)-2-oxa-4,7,11,12-tetraazahexadecan-14-yl)carbamate] | 4.57 | – | – | – | – | 0.08 | <0.11 | Dog. Pred. Cl. ([3]; dog liver microsomes 0.5 mg/mL, 1 uM compound, NADPH): 1.63 L/H/kg; Rat. Pred. Cl. [3, 9]: <0.18 L/H/kg |
| COC(=O)N[C@H](C(=O)N[C@@H](Cc1ccc(C#Cc2cnc(N3CC4CCC(C3)N4C3COC3)c(C)c2)cc1)[C@@H](O)CN(Cc1c(F)cc(-c2cnn(C(F)F)c2)cc1F)NC(=O)[C@@H](NC(=O)OC)C(C)(C)C(F)(F)F)C(C)(C)C(F)(F)F [Example 153, Methyl ((5S,8S,9S,14S)-11-(4-(1-(difluoromethyl)-1H-pyrazol-4-yl)-2,6-difluorobenzyl)-16,16,16-trifluoro-9-hydroxy-15,15-dimethyl-8-(4-((5-methyl-6-(8-(oxetan-3-yl)-3,8-diazabicyclo[3.2.1]octan-3-yl)pyridin-3-yl)ethynyl)benzyl)-3,6,13-trioxo-5-(1,1,1-trifluoro-2-methylpropan-2-yl)-2-oxa-4,7,11,12-tetraazahexadecan-14-yl)carbamate] | – | 0.43 | – | – | – | – | – | – |
| COC(=O)N[C@H](C(=O)N[C@@H](Cc1ccc(C#Cc2ccc(N3C[C@H]4C[C@@H]3CN4C3COC3)nc2)cc1)[C@@H](O)CN(Cc1c(F)cc(-c2ccn(C(F)F)n2)cc1F)NC(=O)[C@@H](NC(=O)OC)C(C)(C)C(F)(F)F)C(C)(C)C(F)(F)F [Example 173, Methyl ((5S,8S,9S,14S)-11-(4-(1-(difluoromethyl)-1H-pyrazol-3-yl)-2,6-difluorobenzyl)-16,16,16-trifluoro-9-hydroxy-15,15-dimethyl-8-(4-((6-((1R,4R)-5-(oxetan-3-yl)-2,5-diazabicyclo[2.2.1]heptan-2-yl)pyridin-3-yl)ethynyl)benzyl)-3,6,13-trioxo-5-(1,1,1-trifluoro-2-methylpropan-2-yl)-2-oxa-4,7,11,12-tetraazahexadecan-14-yl)carbamate] | – | – | – | – | – | 0.14 | <0.11 | EC50 [1]: 2.55 nM; Rat. Pred. Cl. [3, 9]: 1.2 L/H/kg |
| COC(=O)N[C@H](C(=O)NN(Cc1c(F)cc(-c2ccn(C(F)F)n2)cc1F)C[C@H](O)[C@H](Cc1ccc(C#Cc2cnc(N3CC4CCC(C3)N4C3COC3)nc2)cc1)NC(=O)[C@@H](NC(=O)C1CC1)C(C)(C)C(F)(F)F)C(C)(C)C(F)(F)F [Example 221, Methyl ((2S)-1-(2-((2S,3S)-3-((S)-2-(cyclopropanecarboxamido)-4,4,4-trifluoro-3,3-dimethylbutanamido)-2-hydroxy-4-(4-((2-(8-(oxetan-3-yl)-3,8-diazabicyclo[3.2.1]octan-3-yl)pyrimidin-5-yl)ethynyl)phenyl)butyl)-2-(4-(1-(difluoromethyl)-1H-pyrazol-3-yl)-2,6-difluorobenzyl)hydrazinyl)-4,4,4-trifluoro-3,3-dimethyl-1-oxobutan-2-yl)carbamate] | 4.49 | – | 0.14 | <0.11 | 0.28 | – | – | Vd (in vivo [4]): 4.41 L/kg; RAT PO F (in vivo [4]): 19.9%; RAT IV CL (in vivo [4]): 0.32 L/h/kg; RAT IV T1/2 (in vivo [4]): 11.5 h |
